Where no end group is shown, it is not given here. [ ]: non-standard residue; d: D form. Nle = CCCC[C@H](N)C(=O)O
How the values were obtained:
[1] = test system: gemcitabine-treated mice; assay: White blood cell counts in gemcitabine-treated mice (oral efficacy study); type: in vivo, C57Bl/6 mice; conditions: subcutaneous, 0.3 mg/kg daily for 21 days after 160 mg/kg gemcitabine; FIG. 1
Experimental: (§1) The female C57Bl/6 mice (7 per group), 6-8 weeks old, were treated with the formulations described above daily starting 1 day after intravenous injection with chemotherapy, 160 mg/kg gemcitabine. On days 1, 3, 7, 15 and 21 after chemotherapy administration, blood was taken under anesthesia from the saphenous vein to assess white blood cell, and platelet numbers. On day 22, the mice were euthanized and bone marrow collected to assess the number of colony forming units.
(§2) The mice were bled from the saphenous vein. The mice were anesthetized by placing the nose of the animals in a 50 ml conical tube containing cotton balls soaked with isoflurane (an inhaled anesthesia). […]
(§3) Twenty μl of blood was mixed with 180 μl of RBC lysing solution (0.83% NH4Cl, 10 mM EDTA, 0.5% NaHCO3). […] This mixture was vortexed and the number of WBC was evaluated by hematocytometer under light microscopy and the number of platelets was evaluated by hematocytometer under phase contrast microscopy.
(§4) In order to assess the oral efficacy, gemcitabine-treated mice were treated daily for 21 days with five treatments: 1) SQ dosed saline, 2) SQ dosed A(1-7) at 0.3 mg/kg, 3) SQ dosed NorLeu3-A(1-7) at 0.3 mg/kg, 4) orally dosed β-CD formulated A(1-7) at 0.3 mg/kg, or 5) orally dosed β-CD formulated NorLeu-A(1-7)) at 0.3 mg/kg. The effects of these treatments on peripheral blood counts were assessed.

[2] = test system: gemcitabine-treated mice; assay: Platelet counts in gemcitabine-treated mice (oral efficacy study); type: in vivo, C57Bl/6 mice; conditions: subcutaneous, 0.3 mg/kg daily for 21 days after 160 mg/kg gemcitabine; FIG. 3
Experimental: as §1, §2, §3, §4

Substance | number of circulating WBC [1] | circulating platelet numbers [2]
Asp-Arg-Nle-Tyr-Ile-His-Pro (DR[Nle]YIHP) [NorLeu3-A(1-7), dosed subcutaneously as comparator] | increased the number of circulating WBC | did not circulating platelet numbers
angiotensin (1-7) (DRVYIHP; Angiotensin 1-7; UniProt P01019 25-31, looked up, fragment) [A(1-7), Investigational Mas agonist peptide] | increased the number of circulating WBC | 

Reference: patent publication US10987403B2, “Cyclodextrin-Nle3-A(1-7) compositions and their use” (University of Southern California, priority 2017, dated 2021)
